In US10988533B2, “Anti-pre-BCR antagonists and methods” (STC.UNM, priority 2015, dated 2021):

Experiments:
[1] = system: BCL6 expression in 697 cells; experiment: Western blotting of BCL6 expression in 697 cells; format: cell-based, human; conditions: overnight (24 hours) treatment
Procedure: (§1) Results in FIG. 8 evaluate the ability of anti-VpreB Fabs, as well as inhibitors directed at pre-BCR downstream signaling partners Lyn, Syk and SHIP1 (INPP5D), to block tonic signaling from the pre-BCR.
(§2) After stated incubation +/− inhibitors or crosslinking agents, cells were washed with ice-cold PBS and held for 15 minutes on ice in Tris-based lysis buffer, with 1% NP-40 and protease and phosphatase inhibitors (ThermoFisher Scientific, Waltham, Mass.). For effects of inhibitors on BCL6 expression, treatments were carried out for 24 hours. Lysates were clarified by centrifugation at 14,000×g for 10 minutes at 4° C., then added to Laemmli's Reducing buffer. Proteins were separated on SDS-polyacrylamide and transferred to nitrocellulose membranes. After blocking with TBST (Sigma-Aldrich, St. Louis, Mo.) with 5% BSA (Sigma-Aldrich, St. Louis, Mo.), blots were probed with antibodies specific to pCD79a (Tyr 182) (Cell Signaling Technology, Inc., Danvers, Mass.), pSyk (Tyr348) (Novus Biologicals LLC, Littleton, Colo.), pSyk (Tyr 352) (Cell Signaling Technology, Inc., Danvers, Mass.) or BCL6 (Santa Cruz Biotechnology, Inc., Dallas, Tex.). Antibodies to β-Actin (Sigma-Aldrich, St. Louis, Mo.) were used as loading controls.

[2] = system: pre-BCR signaling in 697 cells; experiment: Western blotting of pre-BCR tonic signaling (phospho-CD79a, phospho-Syk) with pervanadate; format: cell-based, human; conditions: for accumulation of phospho-Syk (Syk phosphorylation): in the presence of pervanadate, 30-minute treatment
Procedure: as §1, §2
BCP-ALL cells were treated with pervanadate solution as previously described (Imbert et al., 1994, Biochem J297 (Pt 1):163-173; Smrz et al., 2008, J Biol Chem 283:10904-10918). Data in FIG. 8 are reported using a linear range normalization from 0 to 1.0, whereby tonic without pervanadate treatment response was set to 0 and tonic pervanadate treatment was set to 1.0: […]

[3] = system: 697 cells; experiment: flow cytometry apoptosis assay (Annexin-V / 7-AAD), 697 cells; format: cell-based, human; conditions: for apoptosis in cells treated with vincristine over a range of doses: inhibitor in combination with vincristine
Procedure: Since blocking pre-BCR pro-survival signaling may be advantageous for chemo-sensitization, one can compare apoptosis alone or in combination with a sub-lethal dose of a chemotherapeutic such as, for example, vincristine or daunorubicin.
Curves were fit using sigmoidal dose-response curve using MATLAB curve fitting toolbox (The MathWorks, Inc., Natick, Mass.).
Leukemia cell apoptosis was measured based upon binding to Annexin-V-FITC (BioLegend, Inc., San Diego, Calif.) and loss of cell viability measured by 7-AAD labeling (BioLegend, Inc., San Diego, Calif.), according to manufacturer's procedures. For receptor-binding experiments, cells were incubated under saturating conditions for 1.5 hours on ice in PBS with anti-CD79b-APC antibody (BioLegend, Inc., San Diego, Calif.) or anti-VpreB-PE antibody (BioLegend, Inc., San Diego, Calif.). […] (Bangs Laboratories, Inc., Fishers, Ind.) beads with anti-mouse Fc antibody according to manufacturer's instruction. Dissociation constants were estimated with nonlinear regression analysis under KD controlled conditions as described (Drake, A. W., and S. L. Klakamp, 2007, J Immunol Methods 318:147-152). All flow cytometry data collection was conducted on the […] platform (IntelliCyt Corp., Albuquerque, N. Mex.; Edwards et al., 2009, Methods Mol Biol 486:151-165) and analyzed with the FLOWJO Software Suite (FlowJo, LLC, Ashland, Oreg.).

[4] = system: BCL6 levels in patient #280 cells; experiment: Western blotting of BCL6 levels in patient #280 cells; format: cell-based, human; conditions: 24 hours
Procedure: FIG. 14. Data showing that pre-BCR signaling contributes to survival of some BCP-ALL blasts. Data are shown for patient #280. A) Increase in apoptosis (Annexin labeling) and loss of cell viability (7AAD labeling) after prolonged incubation with dasatinib (10 μM) alone or in combination with vincristine over doses of 0.1 ng/ml to 100 ng/ml. B) Increase in apoptosis after 24-hour incubation of #280 patient cells with α-VpreB Fab (5 μM) alone or in combination with low dose vincristine (10 ng/ml).
After stated incubation +/− inhibitors or crosslinking agents, cells were washed with ice-cold PBS and held for 15 minutes on ice in Tris-based lysis buffer, with 1% NP-40 and protease and phosphatase inhibitors (ThermoFisher Scientific, Waltham, Mass.). For effects of inhibitors on BCL6 expression, treatments were carried out for 24 hours. Lysates were clarified by centrifugation at 14,000×g for 10 minutes at 4° C., then added to Laemmli's Reducing buffer. Proteins were separated on SDS-polyacrylamide and transferred to nitrocellulose membranes. […]

[5] = biological target: T1, pre-BCR on 697 cells (Homo sapiens, UniProt P12018); experiment: Single Particle Tracking of pre-BCR diffusion on 697 cells; format: cell-based; conditions: Fab 1 μM, galectin-1 10 μM; for overall diffusion (mobility) of pre-BCR: relative to tonic signaling, inhibitors 1 μM
T1 construct: endogenous in cells; host or cells: 697 (BCP-ALL cell line)
T1 sequence (P12018 20-145): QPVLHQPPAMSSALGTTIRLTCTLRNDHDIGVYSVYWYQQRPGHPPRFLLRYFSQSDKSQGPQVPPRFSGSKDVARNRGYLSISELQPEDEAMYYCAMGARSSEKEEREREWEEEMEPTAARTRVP
Procedure: Data are reported as changed in ensemble diffusion coefficients (MSD) for pre-BCR plus and minus saturating levels of anti-VpreB1 Fabs (1 μM). In these experiments, Fabs were added to 697 cells for 15 minutes at 37° C. prior to performing Single Particle Tracking (SPT).
Suspension cultures of BCP-ALL cell lines (697, Nalm6) were grown in RPMI 1640 with phenol red (Sigma-Aldrich, St. Louis, Mo.), with 10% (v/v) HI FBS, 1% Penicillin/Streptomycin (Gibco, Gaithersburg, Md.), and L-Glutamine 2 mM. Patient samples were cultured in IMDM, GlutaMAX medium (Gibco, Gaithersburg, Md.) supplemented with 20% (v/v) HI FBS, 1% penicillin/streptomycin, 1× insulin, transferrin and selenium (Gibco, Gaithersburg, Md.), 1 mM sodium pyruvate (Gibco, Gaithersburg, Md.), and 55 μM 2-Mercaptoethanol (Gibco, Gaithersburg, Md.). Prior to experiments, cells were washed twice with Tyrode's solution (Sigma-Aldrich, St. Louis, Mo.). Unless otherwise stated, cells were pretreated for 10 minutes with Bay-61-3606 (Santa Cruz Biotechnology, Inc., Dallas, Tex.; 1 μM), dasatinib (Santa Cruz Biotechnology, Inc., Dallas, Tex.; 1 μM), tofacitinib (Selleck Chemicals LLC, Houston, Tex.; 1 μM), anti-VpreB Fab (1 μM), 3AC (Echelon Biosciences, Inc., Salt Lake City, Utah), and/or recombinant galectin-1 (PreproTech, Inc., Rocky Hill, N.J.; 10 μM), +/− lactose.
LAB-TEK imaging chambers (ThermoFisher Scientific, Waltham, Mass.) were coated with poly-1-lysine hydrobromide (Sigma-Aldrich, St. Louis, Mo.) at 1 mg/ml in sterile water for 20 minutes at room temperature, followed by three washes. BCP-ALL cells were serum-starved in RPMI 1640 without FBS for two hours prior to being added to coated wells and incubated for 15 minutes at 37° C. QD-Fab-CD79b or QD-Fab-IgM were added at 100 pM in Tyrodes's solution (Sigma-Aldrich, St. Louis, Mo.) with 0.1% (w/v) BSA and 20 mM glucose for 10-15 minutes at 37° C.
All corresponding GPU single particle tracking and track elongation, squared displacement, mean square displacement, correlated motion, fiducial data acquisition and image registration and three-state hidden Markov Model used in this study have been described in detail previously (Low-Nam et al, 2011, Nat Struct Mol Biol 18:1244-1249).

[6] = system: patient #280 BCP-ALL blasts; experiment: flow cytometry apoptosis assay (Annexin-V / 7-AAD), patient #280 cells; format: cell-based, human; conditions: patient #280 blasts, single agent, 24-hour culture (dasatinib 10 μM)
Procedure: Blockade of pre-BCR homotypic self-association can sensitize patient cells to vincristine. […] Blasts from patient #280 also were very sensitive to dasatinib as a single agent (80% 7-AAD/Annexin-V positive after 24-hour culture). Longer incubations were not feasible, since cells from this patient were 40% 7-AAD positive when incubated with no drug or in the presence of vincristine up to 5 ng/ml.
Leukemia cell apoptosis was measured based upon binding to Annexin-V-FITC (BioLegend, Inc., San Diego, Calif.) and loss of cell viability measured by 7-AAD labeling (BioLegend, Inc., San Diego, Calif.), according to manufacturer's procedures. For receptor-binding experiments, cells were incubated under saturating conditions for 1.5 hours on ice in PBS with anti-CD79b-APC antibody (BioLegend, Inc., San Diego, Calif.) or anti-VpreB-PE antibody (BioLegend, Inc., San Diego, Calif.). Flow results were calibrated using QUANTUM SIMPLY CELLULAR (Bangs Laboratories, Inc., Fishers, Ind.) beads with anti-mouse Fc antibody according to manufacturer's instruction. […] All flow cytometry data collection was conducted on the HYPERCYT platform (IntelliCyt Corp., Albuquerque, N. Mex.; Edwards et al., 2009, Methods Mol Biol 486:151-165) and analyzed with the FLOWJO Software Suite (FlowJo, LLC, Ashland, Oreg.).

[7] = biological target: T2, pre-BCR on 697 cells (Homo sapiens, UniProt P12018+P15814); experiment: fluorescence imaging of pre-BCR clustering by labeled galectin-1; format: cell-based; conditions: Alexa 555-conjugated galectin-1 10 μM, within five minutes
T2 construct: endogenous in cells; host or cells: 697 (BCP-ALL cell line)
T2 sequence (P15814 38-213, one chain of several): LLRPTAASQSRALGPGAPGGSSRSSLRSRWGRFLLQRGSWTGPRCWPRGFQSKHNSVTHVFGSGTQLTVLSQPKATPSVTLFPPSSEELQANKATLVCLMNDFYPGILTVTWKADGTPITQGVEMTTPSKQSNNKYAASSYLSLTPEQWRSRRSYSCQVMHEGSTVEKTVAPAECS

CC(C)CCC[C@@H](C)[C@H]1CC[C@H]2[C@@H]3CC[C@H]4C[C@H](N)CC[C@]4(C)[C@H]3CC[C@]12C [3AC, 3-a-aminocholestane]
BCL6 expression [1]: completely repressed | accumulation of phospho-Syk (Syk phosphorylation) [2]: slightly elevated | apoptosis in cells treated with vincristine over a range of doses [3]: potentiate apoptosis | BCL6 levels [4]: marked decline

COc1ccc(-c2cc3nccn3c(Nc3ncccc3C(N)=O)n2)cc1OC [Bay-61-3606]
overall diffusion (mobility) of pre-BCR [5]: overall increased mobility | diminished accumulation of Syk PY352 ([2]; pervanadate-treated): approximately 20% | apoptosis in cells treated with vincristine over a range of doses [3]: potentiate apoptosis

Cc1nc(Nc2ncc(C(=O)Nc3c(C)cccc3Cl)s2)cc(N2CCN(CCO)CC2)n1 [dasatinib]
7-AAD/Annexin-V positive [6]: 80%

C[C@@H]1CCN(C(=O)CC#N)C[C@@H]1N(C)c1ncnc2[nH]ccc12 [tofacitinib]
overall diffusion (mobility) of pre-BCR [5]: not Jak (tofacitinib) results in a global increase | BCL6 expression [1]: elevated levels | accumulation of phospho-Syk (Syk phosphorylation) [2]: did not alter | apoptosis in cells treated with vincristine over a range of doses [3]: potentiate apoptosis

CC[C@]1(O)C[C@H]2CN(CCc3c([nH]c4ccccc34)[C@@](C(=O)OC)(c3cc4c(cc3OC)N(C=O)[C@H]3[C@@](O)(C(=O)OC)[C@H](OC(C)=O)[C@]5(CC)C=CCN6CC[C@]43[C@@H]65)C2)C1 [vincristine]
apoptotic cells ([3]; vincristine 10 ng/ml, with or without VpreB Fabs (5 μM)): 69.9%

galectin-1: recombinant human galectin-1, crosslinks pre-BCR via surrogate light chain
immobile fraction of pre-BCR (D<0.05 μm^2/sec) [5]: A large fraction of pre-BCR become essentially immobile | overall diffusion (mobility) of pre-BCR [5]: far less mobile | clustering of the pre-BCR [7]: marked clustering of the pre-BCR
